Article PMC11178787, “Development of a natural product optimization strategy for inhibitors against MraY, a promising antibacterial target” (Nature Communications, 2024)
Converted amounts (≈) assume the structure as drawn. Like-named read-outs stand apart in the source and are kept apart here.

What was measured:
Experiment in all cases: microbe, parasite or virus in culture
[1] = system: T1, E. faecalis(VRE) ATCC 51299; parameters: CLSI broth microdilution MIC in MHB-II, single trial; settings: Enterococcus faecalis, 18 h
T1 construct: ATCC 51299 (VRE)
Protocol: (§1) MICs were determined by a microdilution broth method as recommended by the CLSI with MHB-II. For MICs of stable analogues, a 2-fold dilution of each compound was prepared in DMSO at 100-fold of the final concentration. The strains were inoculated with 5 × 10^5 cfu/mL in 96-well plates (each 100 μL/well), and 1 μL of DMSO solutions of the samples were added (contained less than 1% DMSO). The plates were incubated at 37 °C for 18 h and then MICs were determined. MICs of stable analogues in Table 1 were the highest value in three trials. MICs in Supplementary Table 1 were determined in one trial.

[2] = system: T2, E. faecium ATCC 35667; parameters: CLSI broth microdilution MIC in MHB-II, single trial; settings: Enterococcus faecium, ATCC35667, 18 h
T2 construct: ATCC 35667
Protocol: as §1

[3] = system: T3, E. faecium(VRE) ATCC 51559; parameters: CLSI broth microdilution MIC in MHB-II, single trial; settings: Enterococcus faecium, 18 h
T3 construct: ATCC 51559 (VRE)
Protocol: as §1

[4] = system: T4, Staphylococcus aureus MRSA JE2; parameters: CLSI broth microdilution MIC in MHB-II, single trial; settings: 18 h
T4 construct: JE2 (MRSA)
Protocol: as §1

[5] = system: T5, S. aureus ATCC 29213; parameters: CLSI broth microdilution MIC in MHB-II, single trial; settings: Staphylococcus aureus, ATCC29213, 18 h
T5 construct: ATCC 29213
Protocol: as §1

[6] = system: T6, E. faecium(VRE) ATCC 51858; parameters: CLSI broth microdilution MIC in MHB-II, single trial; settings: Enterococcus faecium, 18 h
T6 construct: ATCC 51858 (VRE)
Protocol: as §1

[7] = system: T7, Staphylococcus aureus #2933; parameters: CLSI broth microdilution MIC in MHB-II; settings: Staphylococcus aureus, 18 h, read-out: MIC
T7 construct: #2933
Protocol: as §1

[8] = system: T8, Enterococcus faecalis 29; parameters: CLSI broth microdilution MIC in MHB-II; settings: Enterococcus faecalis, 29, 18 h, read-out: MIC
T8 construct: 29
Protocol: as §1

[9] = system: Enterococcus faecium 5; parameters: CLSI broth microdilution MIC in MHB-II; settings: Enterococcus faecium, 5, 18 h, read-out: MIC
Protocol: as §1

[10] = system: Enterococcus faecium 9; parameters: CLSI broth microdilution MIC in MHB-II; settings: Enterococcus faecium, 9, 18 h, read-out: MIC
Protocol: as §1

[11] = system: T9, Enterococcus faecalis 27; parameters: CLSI broth microdilution MIC in MHB-II; settings: Enterococcus faecalis, 27, 18 h, read-out: MIC
T9 construct: 27
Protocol: as §1

[12] = system: T10, Staphylococcus aureus #2310; parameters: CLSI broth microdilution MIC in MHB-II; settings: Staphylococcus aureus, 18 h, read-out: MIC
T10 construct: #2310
Protocol: as §1

[13] = system: T11, Enterococcus faecalis 23; parameters: CLSI broth microdilution MIC in MHB-II; settings: Enterococcus faecalis, 23, 18 h, read-out: MIC
T11 construct: 23
Protocol: as §1

[14] = system: T12, Staphylococcus aureus #2932; parameters: CLSI broth microdilution MIC in MHB-II; settings: Staphylococcus aureus, 18 h, read-out: MIC
T12 construct: #2932
Protocol: as §1

[15] = system: T13, Staphylococcus aureus #2934; parameters: CLSI broth microdilution MIC in MHB-II; settings: Staphylococcus aureus, 18 h, read-out: MIC
T13 construct: #2934
Protocol: as §1

[16] = system: T14, Staphylococcus aureus #1958; parameters: CLSI broth microdilution MIC in MHB-II; settings: Staphylococcus aureus, 18 h, read-out: MIC
T14 construct: #1958
Protocol: as §1

[17] = system: T15, Staphylococcus aureus #2931; parameters: CLSI broth microdilution MIC in MHB-II; settings: Staphylococcus aureus, 18 h, read-out: MIC
T15 construct: #2931
Protocol: as §1

[18] = system: Enterococcus faecium 1; parameters: CLSI broth microdilution MIC in MHB-II; settings: Enterococcus faecium, 1, 18 h, read-out: MIC
Protocol: as §1

[19] = system: T16, Staphylococcus aureus #2935; parameters: CLSI broth microdilution MIC in MHB-II; settings: Staphylococcus aureus, 18 h, read-out: MIC
T16 construct: #2935
Protocol: as §1

[20] = system: T17, Enterococcus faecalis 24; parameters: CLSI broth microdilution MIC in MHB-II; settings: Enterococcus faecalis, 24, 18 h, read-out: MIC
T17 construct: 24
Protocol: as §1

[21] = system: Enterococcus faecium 2; parameters: CLSI broth microdilution MIC in MHB-II; settings: Enterococcus faecium, 2, 18 h, read-out: MIC
Protocol: as §1

[22] = system: T18, Enterococcus faecalis 22; parameters: CLSI broth microdilution MIC in MHB-II; settings: Enterococcus faecalis, 22, 18 h, read-out: MIC
T18 construct: 22
Protocol: as §1

[23] = system: T19, Enterococcus faecium 10; parameters: CLSI broth microdilution MIC in MHB-II; settings: Enterococcus faecium, 10, 18 h, read-out: MIC
T19 construct: 10
Protocol: as §1

[24] = system: T20, Enterococcus faecalis 25; parameters: CLSI broth microdilution MIC in MHB-II; settings: Enterococcus faecalis, 25, 18 h, read-out: MIC
T20 construct: 25
Protocol: as §1

[25] = system: T21, Enterococcus faecalis 21; parameters: CLSI broth microdilution MIC in MHB-II; settings: Enterococcus faecalis, 21, 18 h, read-out: MIC
T21 construct: 21
Protocol: as §1

Structure (SMILES) | MIC [7] [µg/mL] | MIC [8] [µg/mL] | MIC [9] [µg/mL] | MIC [10] [µg/mL] | MIC [11] [µg/mL] | MIC [12] [µg/mL] | MIC [13] [µg/mL] | MIC [14] [µg/mL] | MIC [15] [µg/mL] | MIC [16] [µg/mL] | MIC [17] [µg/mL] | MIC [18] [µg/mL] | MIC [19] [µg/mL] | MIC [20] [µg/mL] | MIC [21] [µg/mL] | MIC [22] [µg/mL] | MIC [23] [µg/mL] | MIC [24] [µg/mL] | MIC [25] [µg/mL] | other results
CC1(C)S[C@@H]2[C@H](NC(=O)[C@H](N)c3ccccc3)C(=O)N2[C@H]1C(=O)O [ampicillin] | 32 (≈ 91.6 µM) | 1 (≈ 2.86 µM) | 128 (≈ 366 µM) | > 128 | 1 (≈ 2.86 µM) | 32 (≈ 91.6 µM) | 1 (≈ 2.86 µM) | 32 (≈ 91.6 µM) | 16 (≈ 45.8 µM) | 32 (≈ 91.6 µM) | 32 (≈ 91.6 µM) | > 128 | 16 (≈ 45.8 µM) | 0.5 (≈ 1.43 µM) | 128 (≈ 366 µM) | 1 (≈ 2.86 µM) | > 128 | 1 (≈ 2.86 µM) | 1 (≈ 2.86 µM) | MIC ([1]; read-out: ampicillin MIC): 1 µg/mL (≈ 2.86 µM); MIC ([2]; read-out: ampicillin MIC): 1 µg/mL (≈ 2.86 µM); MIC ([3]; read-out: ampicillin MIC): 128 µg/mL (≈ 366 µM); MIC ([4]; read-out: ampicillin MIC): 4 µg/mL (≈ 11.4 µM); MIC ([5]; read-out: ampicillin MIC): 1 µg/mL (≈ 2.86 µM); MIC ([6]; read-out: ampicillin MIC): 128 µg/mL (≈ 366 µM)
CCCCCCCCCCCCCCCC(=O)N[C@@H](CCCNC(=N)N)C(=O)NCc1ccc(CN[C@H](C(=O)O)[C@H](O[C@@H]2O[C@H](CN)[C@@H](O)[C@H]2O)[C@H]2O[C@@H](n3ccc(=O)[nH]c3=O)[C@H](O)[C@@H]2O)cc1 [compound 3, analogue 3] | 1 (≈ 1.04 µM) | 0.25 (≈ 0.26 µM) | 1 (≈ 1.04 µM) | 0.5 (≈ 0.52 µM) | 0.25 (≈ 0.26 µM) | 2 (≈ 2.08 µM) | 0.13 (≈ 0.135 µM) | 2 (≈ 2.08 µM) | 1 (≈ 1.04 µM) | 2 (≈ 2.08 µM) | 1 (≈ 1.04 µM) | 1 (≈ 1.04 µM) | – | 0.13 (≈ 0.135 µM) | 1 (≈ 1.04 µM) | 0.13 (≈ 0.135 µM) | 1 (≈ 1.04 µM) | 0.13 (≈ 0.135 µM) | 0.5 (≈ 0.52 µM) | MIC ([1]; read-out: 3 MIC): 0.5 µg/mL (≈ 0.52 µM); MIC ([2]; read-out: 3 MIC): 1 µg/mL (≈ 1.04 µM); MIC ([3]; read-out: 3 MIC): 0.5 µg/mL (≈ 0.52 µM); MIC ([4]; read-out: 3 MIC): 1 µg/mL (≈ 1.04 µM); MIC ([5]; read-out: 3 MIC): 1 µg/mL (≈ 1.04 µM); MIC ([6]; read-out: 3 MIC): 2 µg/mL (≈ 2.08 µM)
CCCCCCCCCCCCCCCC(=O)N[C@@H](CCCCN)C(=O)Nc1cccc(CN[C@H](C(=O)O)[C@H](O[C@@H]2O[C@H](CN)[C@@H](O)[C@H]2O)[C@H]2O[C@@H](n3ccc(=O)[nH]c3=O)[C@H](O)[C@@H]2O)c1 [compound 6, analogue 6] | 0.5 (≈ 0.543 µM) | 0.25 (≈ 0.272 µM) | 1 (≈ 1.09 µM) | 1 (≈ 1.09 µM) | 0.5 (≈ 0.543 µM) | – | 0.5 (≈ 0.543 µM) | – | 0.5 (≈ 0.543 µM) | 1 (≈ 1.09 µM) | 0.5 (≈ 0.543 µM) | 1 (≈ 1.09 µM) | 1 (≈ 1.09 µM) | 0.5 (≈ 0.543 µM) | 1 (≈ 1.09 µM) | 0.5 (≈ 0.543 µM) | 1 (≈ 1.09 µM) | 0.5 (≈ 0.543 µM) | 0.25 (≈ 0.272 µM) | MIC ([1]; read-out: 6 MIC): 0.5 µg/mL (≈ 0.543 µM); MIC ([2]; read-out: 6 MIC): 0.5 µg/mL (≈ 0.543 µM); MIC ([3]; read-out: 6 MIC): 1 µg/mL (≈ 1.09 µM); MIC ([4]; read-out: 6 MIC): 1 µg/mL (≈ 1.09 µM); MIC ([5]; read-out: 6 MIC): 1 µg/mL (≈ 1.09 µM); MIC ([6]; read-out: 6 MIC): 2 µg/mL (≈ 2.17 µM)
CCCCCCCCCCCCCCCC(=O)N[C@@H](CCCNC(=N)N)C(=O)Nc1ccc(CN[C@H](C(=O)O)[C@H](O[C@@H]2O[C@H](CN)[C@@H](O)[C@H]2O)[C@H]2O[C@@H](n3ccc(=O)[nH]c3=O)[C@H](O)[C@@H]2O)cc1 [compound 7, analogue 7] | 1 (≈ 1.05 µM) | < 0.06 | 0.5 (≈ 0.527 µM) | 0.25 (≈ 0.264 µM) | 0.25 (≈ 0.264 µM) | 2 (≈ 2.11 µM) | 0.5 (≈ 0.527 µM) | – | 1 (≈ 1.05 µM) | 1 (≈ 1.05 µM) | 1 (≈ 1.05 µM) | 1 (≈ 1.05 µM) | – | 0.13 (≈ 0.137 µM) | 0.5 (≈ 0.527 µM) | 0.13 (≈ 0.137 µM) | 1 (≈ 1.05 µM) | 0.25 (≈ 0.264 µM) | 0.5 (≈ 0.527 µM) | MIC ([1]; read-out: 7 MIC): 0.5 µg/mL (≈ 0.527 µM); MIC ([2]; read-out: 7 MIC): 0.5 µg/mL (≈ 0.527 µM); MIC ([3]; read-out: 7 MIC): 0.5 µg/mL (≈ 0.527 µM); MIC ([4]; read-out: 7 MIC): 1 µg/mL (≈ 1.05 µM); MIC ([5]; read-out: 7 MIC): 1 µg/mL (≈ 1.05 µM); MIC ([6]; read-out: 7 MIC): 2 µg/mL (≈ 2.11 µM)
CN[C@H](CC(C)C)C(=O)N[C@H]1C(=O)N[C@@H](CC(N)=O)C(=O)N[C@H]2C(=O)N[C@H]3C(=O)N[C@H](C(=O)N[C@H](C(=O)O)c4cc(O)cc(O)c4-c4cc3ccc4O)[C@H](O)c3ccc(c(Cl)c3)Oc3cc2cc(c3O[C@@H]2O[C@H](CO)[C@@H](O)[C@H](O)[C@H]2O[C@H]2C[C@](C)(N)[C@H](O)[C@H](C)O2)Oc2ccc(cc2Cl)[C@H]1O [vancomycin] | 1 (≈ 0.69 µM) | 1 (≈ 0.69 µM) | 1 (≈ 0.69 µM) | 1 (≈ 0.69 µM) | 1 (≈ 0.69 µM) | 2 (≈ 1.38 µM) | 1 (≈ 0.69 µM) | 2 (≈ 1.38 µM) | 1 (≈ 0.69 µM) | 1 (≈ 0.69 µM) | 1 (≈ 0.69 µM) | 1 (≈ 0.69 µM) | – | 1 (≈ 0.69 µM) | 1 (≈ 0.69 µM) | 1 (≈ 0.69 µM) | 1 (≈ 0.69 µM) | 1 (≈ 0.69 µM) | 1 (≈ 0.69 µM) | MIC ([1]; read-out: vancomycin MIC): 128 µg/mL (≈ 88.3 µM); MIC ([2]; read-out: vancomycin MIC): 1 µg/mL (≈ 0.69 µM); MIC ([3]; read-out: vancomycin MIC): > 128 µg/mL; MIC ([4]; read-out: vancomycin MIC): 1 µg/mL (≈ 0.69 µM); MIC ([5]; read-out: vancomycin MIC): 1 µg/mL (≈ 0.69 µM); MIC ([6]; read-out: vancomycin MIC): 128 µg/mL (≈ 88.3 µM)
